Test results: publication PMC6753678, “Fueling Open Innovation for Malaria Transmission-Blocking Drugs: Hundreds of Molecules Targeting Early Parasite Mosquito Stages” (Frontiers in Microbiology, 2019)
Like-named read-outs stand apart in the source and are kept apart here.

Assays:
[1] = tested on: HepG2 cells; experiment: HepG2 cytotoxicity assay
Procedure, shortened: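 Percent inhibition derived from fluorescent viability readout, normalised to DMSO (negative) and 50 μM doxorubicin (positive). Compound incubation lasted 48 h at 37°C, 5% CO2, with 2,500 HepG2 cells/well in MEM plus 10% FBS and 1% NEAA.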

[2] = tested on: P. falciparum late stage (stages IV-V) gametocytes; design: method as in Almela et al 2016; conditions: ref Almela et al 2016, read-out: Pf GCT ATP IC50, cited from earlier work
[3] = tested on: HepG2 cells; conditions: cited from earlier work
[4] = tested on: P. falciparum female gametocytes; design: method as in Miguel-Blanco et al 2017; conditions: ref Miguel-Blanco et al 2017, read-out: Pf FGAA IC50, cited from earlier work
[5] = tested on: P. falciparum late stage (stages IV-V) gametocytes; experiment: P. falciparum late stage gametocyte ATP depletion assay (Pf GC-ATP); conditions: 1: YES; 0: NO
[6] = tested on: P. falciparum female gametocytes; experiment: P. falciparum female gametogenesis assay (Pf FGAA); conditions: 1: YES; 0: NO
[7] = HepG2 cytotoxicity unified across the three screens
[8] = value reported with the Pf FGAA screen, ref Miguel-Blanco et al 2017
[9] = value reported with the Pf GCT ATP screen, ref Almela et al 2016
[10] = HepG2 values of the three screens unified

O=C(O)C(F)(F)F.O=S(=O)(NCCN1CCCC1)c1cccc(-c2ccc(CNC3Cc4ccccc4C3)cc2)c1 [TCMDC-132241]
Unified cytotox [1, 7]: 7.23 µM
IC50 ([2]; TCAMS screen comparison): 2150 nM
HepG2 cytoxicity [3, 8]: 6.46 µM
HepG2 cytoxicity [3, 9]: 8 µM
IC50 ([4]; TCAMS screen comparison): 3100 nM
Is compound selective in assay? Pf GC-ATP active? [5]: 0 (0: NO)
Is compound selective in assay? Pf FGAA active? [6]: 0 (0: NO)

COc1ccc(-c2cnc3[nH]cc(-c4ccncc4)c3c2)cc1OC [TCMDC-135853]
Unified cytotox [1, 7]: 7.44 µM
IC50 ([2]; TCAMS screen comparison): 900 nM
HepG2 cytoxicity [3, 8]: 11.79 µM
HepG2 cytoxicity [3, 9]: 3.1 µM
IC50 ([4]; TCAMS screen comparison): 2260 nM
Is compound selective in assay? Pf GC-ATP active? [5]: 0 (0: NO)
Is compound selective in assay? Pf FGAA active? [6]: 0 (0: NO)

CNCCNc1nccc(N2CCc3ncnc(Nc4ccc(OCc5cccc(F)c5)c(Cl)c4)c3C2)n1 [TCMDC-135478]
Unified cytotox [1, 7]: 6.39 µM
IC50 ([2]; TCAMS screen comparison): 670 nM
HepG2 cytoxicity [3, 8]: 5.62 µM
HepG2 cytoxicity [3, 9]: 7.16 µM
IC50 ([4]; TCAMS screen comparison): 1670 nM
Is compound selective in assay? Pf GC-ATP active? [5]: 0 (0: NO)
Is compound selective in assay? Pf FGAA active? [6]: 0 (0: NO)

CC(C)Oc1ccc2ccccc2c1CNCCCCCCNCc1c(OC(C)C)ccc2ccccc12.CS(=O)(=O)O [TCMDC-137965]
Unified cytotox [1, 7]: 2.14 µM
IC50 ([2]; TCAMS screen comparison): 140 nM
HepG2 cytoxicity [3, 8]: 1.91 µM
HepG2 cytoxicity [3, 9]: 2.38 µM
IC50 ([4]; TCAMS screen comparison): 950 nM
Is compound selective in assay? Pf GC-ATP active? [5]: 1 (1: YES)
Is compound selective in assay? Pf FGAA active? [6]: 0 (0: NO)

COc1cc2ccccc2c(OC)c1CCNCCCCNCCc1c(OC)cc2ccccc2c1OC.CS(=O)(=O)O [TCMDC-137842]
Unified cytotox [1, 10]: 3.68 µM
IC50 [2]: 310 nM
HepG2 cytoxicity (Pf GCT ATP screen) ([3]; ref Almela et al 2016): 3.2 µM
HepG2 cytoxicity (Pf FGAA screen) ([3]; ref Miguel-Blanco et al 2017): 4.17 µM
IC50 [4]: 1240 nM
Is compound selective in assay? Pf GC-ATP active? [5]: 1 (1: YES)
Is compound selective in assay? Pf FGAA active? [6]: 0 (0: NO)

CCCOc1ccc(CCNCCCCNCCc2ccc(OCCC)c3ccccc23)c2ccccc12.CS(=O)(=O)O [TCMDC-137952]
Unified cytotox [1, 7]: 2.38 µM
IC50 ([2]; TCAMS screen comparison): 80 nM
HepG2 cytoxicity [3, 8]: 2.16 µM
HepG2 cytoxicity [3, 9]: 2.6 µM
IC50 ([4]; TCAMS screen comparison): 610 nM
Is compound selective in assay? Pf GC-ATP active? [5]: 1 (1: YES)
Is compound selective in assay? Pf FGAA active? [6]: 0 (0: NO)

CCCCOc1ccc(CNCCCCCCNCc2ccc(OCCCC)c3ccccc23)c2ccccc12.CS(=O)(=O)O [TCMDC-137281]
Unified cytotox [1, 7]: 2.67 µM
IC50 ([2]; TCAMS screen comparison): 2800 nM
HepG2 cytoxicity [3, 8]: 2.29 µM
HepG2 cytoxicity [3, 9]: 3.04 µM
IC50 ([4]; TCAMS screen comparison): 400 nM
Is compound selective in assay? Pf GC-ATP active? [5]: 0 (0: NO)
Is compound selective in assay? Pf FGAA active? [6]: 0 (0: NO)

C#CCCOc1ccc2ccccc2c1CNCCCCCCNCc1c(OCCC#C)ccc2ccccc12 [TCMDC-137832]
Unified cytotox [1, 7]: 5.14 µM
IC50 ([2]; TCAMS screen comparison): 410 nM
HepG2 cytoxicity [3, 8]: 4.79 µM
HepG2 cytoxicity [3, 9]: 5.5 µM
IC50 ([4]; TCAMS screen comparison): 920 nM
Is compound selective in assay? Pf GC-ATP active? [5]: 1 (1: YES)
Is compound selective in assay? Pf FGAA active? [6]: 0 (0: NO)

c1cc(C2=N[C@H]3CCCC[C@@H]3N2)ccc1OCCCOc1ccc(C2=N[C@@H]3CCCC[C@H]3N2)cc1 [TCMDC-137803]
Unified cytotox [1, 7]: 38.02 µM
IC50 ([2]; TCAMS screen comparison): 470 nM
HepG2 cytoxicity [3, 8]: 38.02 µM
HepG2 cytoxicity [3, 9]: >25 µM
IC50 ([4]; TCAMS screen comparison): 11500 nM
Is compound selective in assay? Pf GC-ATP active? [5]: 1 (1: YES)
Is compound selective in assay? Pf FGAA active? [6]: 0 (0: NO)

CN(CCCNCc1ccc2ccccc2c1)CCCNCc1ccc2ccccc2c1.Cl [TCMDC-137908]
Unified cytotox [1, 10]: 4.85 µM
IC50 [2]: 50 nM
HepG2 cytoxicity (Pf GCT ATP screen) ([3]; ref Almela et al 2016): 4.68 µM
HepG2 cytoxicity (Pf FGAA screen) ([3]; ref Miguel-Blanco et al 2017): 5.01 µM
IC50 [4]: 90 nM
Is compound selective in assay? Pf GC-ATP active? [5]: 1 (1: YES)
Is compound selective in assay? Pf FGAA active? [6]: 1 (1: YES)
